Data: US7101878B1 (Agouron Pharmaceuticals, Inc., priority 1998, dated 2006)
Like-named read-outs stand apart in the source and are kept apart here.

Target: T1, human GnRH receptor (Homo sapiens, UniProt P30968)
T1 construct: expressed in transfected cells; host or cells: HEK 293 (hGnRH-R/293, from Dr. Stuart Sealfon)
T1 sequence (P30968 1-328): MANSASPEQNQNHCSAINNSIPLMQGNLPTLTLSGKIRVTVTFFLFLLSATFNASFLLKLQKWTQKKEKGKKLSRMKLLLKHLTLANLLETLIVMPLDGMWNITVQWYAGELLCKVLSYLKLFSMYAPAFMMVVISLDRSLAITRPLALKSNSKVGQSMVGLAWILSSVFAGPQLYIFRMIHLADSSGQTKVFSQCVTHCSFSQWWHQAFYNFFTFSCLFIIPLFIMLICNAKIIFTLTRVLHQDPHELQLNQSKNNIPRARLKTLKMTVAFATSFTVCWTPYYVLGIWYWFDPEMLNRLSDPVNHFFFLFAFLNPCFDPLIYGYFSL
Assay: Radioligand binding, 125I-GnRH-A displacement, membranes of HEK 293 cells with human GnRH receptor
Details: for remaining activity at 10 µM: read-out: S%R 10 uM hGnRHR; for IC50: read-out: hGnRH IC50; for remaining activity at 1 µM: 1 uM compound, read-out: S%R 1 uM hGnRHR
In short: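 Bound tracer was separated by filtration through polyethyleneimine-soaked GF/C filters and counted by liquid scintillation. IC50 from curve fitting; other species were tested under the same conditions.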

[1] = 1 uM, read-out: % Inhib. @ 1 uM hGnRH
[2] = 1 h, repeat of % Inhib. at 1 uM, read-out: Repeats @ 1 uM hGnRH
[3] = 1 h, substrate remaining, 10 uM compound, closer to zero = closer to 100% inhibition
[4] = 1 h, substrate remaining, closer to zero = closer to 100% inhibition

Row | Compound | inhibition at 1 µM [1] | inhibition at 1 µM [2] | further results
1 | Cc1cc2c(cc1Cc1ccc(C(=O)N(Cc3ccccc3F)C3CCN(Cc4ccccc4)C3)o1)C(C)(C)CCC2(C)C (centres unmarked) | 7% | 9% | –
2 | COc1cccc(C)c1NC(=O)c1ccc(Cc2cc3c(cc2C)C(C)(C)CCC3(C)C)o1 [Compound 378] | – | – | remaining activity at 10 µM [3]: -4%
3 | Cc1cc2c(cc1Cc1ccc(C(=O)Nc3cccc(OC(F)(F)F)c3)o1)C(C)(C)CCC2(C)C [Compound 359] | – | – | remaining activity at 10 µM [3]: 55%
4 | Cc1cc2c(cc1Cc1ccc(C(=O)NCc3c(Cl)cccc3Oc3ccccc3)o1)C(C)(C)CCC2(C)C | -10% | -15% | –
5 | CC1=CC(NC(=O)c2ccc(Cc3cc4c(cc3C)C(C)(C)CCC4(C)C)o2)=NC1c1ccccc1 (centres unmarked) [Compound 329] | – | – | remaining activity at 10 µM [3]: 31%
6 | Cc1cc(NCc2cccc(CNC(=O)c3ccc(Cc4cc5c(cc4C)C(C)(C)CCC5(C)C)o3)c2)nc(N)n1 [Compound 144] | – | – | IC50: 0.23 µM
7 | COCCNC(=O)c1ccc(Cc2cc3c(cc2C)C(C)(C)CCC3(C)C)o1 [Compound 432] | – | – | remaining activity at 1 µM [4]: 42%
8 | COc1cc(OC)c(Cc2ccc(C(=O)Nc3c(OC)cc(OC)cc3OC)o2)c(OC)c1 [Compound 219] | – | – | IC50: 0.875 µM
9 | COC(=O)c1ccc(NC(=O)c2ccc(Cc3cc4c(cc3C)C(C)(C)CCC4(C)C)o2)c(O)c1 [Compound 393] | – | – | remaining activity at 10 µM [3]: 44%
10 | Cc1cc2c(cc1Cc1ccc(C(=O)Nc3cccc4ncccc34)o1)C(C)(C)CCC2(C)C [Compound 346] | – | – | remaining activity at 10 µM [3]: -14%
11 | Cc1cc2c(cc1Cc1ccc(C(=O)NC(C#N)c3ccccc3)o1)C(C)(C)CCC2(C)C (centres unmarked) [Compound 452] | – | – | remaining activity at 1 µM [4]: 55%
12 | Cc1cc2c(cc1Cc1ccc(C(=O)NCc3ccc4c(c3)C(C)(C)CCC4(C)C)o1)C(C)(C)CCC2(C)C [Compound 165] | – | – | IC50: > 10 µM
13 | Cc1cc2c(cc1Cc1ccc(C(=O)Nc3ccccc3C(=O)NCCCN3CCCC3=O)o1)C(C)(C)CCC2(C)C [Compound 368] | – | – | remaining activity at 10 µM [3]: 56%
14 | COc1ccccc1CC(C)N(C)C(=O)c1ccc(Cc2cc3c(cc2C)C(C)(C)CCC3(C)C)o1 (centres unmarked) | -7% | 15% | –
15 | COc1ccccc1CCNC(=O)c1ccc(Cc2cc3c(cc2C)C(C)(C)CCC3(C)C)o1 [Compound 419] | – | – | remaining activity at 1 µM [4]: 36%
16 | CSc1ccccc1NC(=O)c1ccc(Cc2cc3c(cc2C)C(C)(C)CCC3(C)C)o1 [Compound 363] | – | – | remaining activity at 10 µM [3]: 14%
17 | Cc1cc2c(cc1Cc1ccc(C(=O)Nc3ccccc3C(=O)Nc3cnccn3)o1)C(C)(C)CCC2(C)C | -27% | -29% | –
18 | Cc1cc2c(cc1Cc1ccc(C(=O)NC(CO)Cc3ccccc3)o1)C(C)(C)CCC2(C)C (centres unmarked) [drawing 1137] | – | – | % Inhib. @ 1 uM hGnRH (1 uM): 17%; Repeats @ 1 uM hGnRH (repeat of % Inhib. at 1 uM): 20

Row | Compound | inhibition at 1 µM [1] | inhibition at 1 µM [2] | further results
19 | Cc1cnc(NC(=O)c2ccc(Cc3cc4c(cc3C)C(C)(C)CCC4(C)C)o2)s1 [Compound 331] | – | – | remaining activity at 10 µM [3]: 49%
20 | CCOc1ccccc1CNC(=O)c1ccc(Cc2cc3c(cc2C)C(C)(C)CCC3(C)C)o1 [Compound 412] | – | – | remaining activity at 1 µM [4]: 49%
21 | Cc1cc2c(cc1Cc1ccc(C(=O)NCc3ccc(Cl)c(C(F)(F)F)c3)o1)C(C)(C)CCC2(C)C | 15% | 19% | –
22 | COc1cccc(OC)c1NC(=O)c1ccc(Cc2cc3c(cc2C)C(C)(C)CCC3(C)C)o1 [Compound 389] | – | – | remaining activity at 10 µM (1 h): 3%
23 | Cc1cc2c(cc1Cc1ccc(C(=O)NCc3cccc(C)c3C)o1)C(C)(C)CCC2(C)C [Compound 441] | – | – | remaining activity at 1 µM [4]: 17%
24 | Cc1cc2c(cc1Cc1ccc(C(=O)NCc3cccc4ccccc34)o1)C(C)(C)CCC2(C)C [Compound 422] | – | – | remaining activity at 1 µM [4]: 34%
25 | Cc1cc2c(cc1Cc1ccc(C(=O)NC(CO)[C@H](O)c3ccc([N+](=O)[O-])cc3)o1)C(C)(C)CCC2(C)C (some centres unmarked) | -10% | -15% | –
26 | Cc1cc2c(cc1Cc1ccc(C(=O)NCc3cccc(Br)c3)o1)C(C)(C)CCC2(C)C [Compound 454] | – | – | remaining activity at 1 µM [4]: 36%
27 | CNc1ccccc1NC(=O)c1ccc(Cc2cc3c(cc2C)C(C)(C)CCC3(C)C)o1 [Compound 350] | – | – | remaining activity at 10 µM [3]: 10%
28 | Cc1cc2c(cc1Cc1ccc(C(=O)NCCc3ccc(O)c(O)c3)o1)C(C)(C)CCC2(C)C | -10% | -3% | –
29 | Cc1cc2c(cc1Cc1ccc(C(=O)Nc3c(O)cccc3OC(=O)c3ccc(Cc4cc5c(cc4C)C(C)(C)CCC5(C)C)o3)o1)C(C)(C)CCC2(C)C [Compound 193] | – | – | IC50: > 10 µM
30 | Cc1cc2c(cc1Cc1ccc(C(=O)NCc3ccc(Br)cc3)o1)C(C)(C)CCC2(C)C [Compound 453] | – | – | remaining activity at 1 µM [4]: 50%
31 | Cc1cc2c(cc1Cc1ccc(C(=O)NCCOc3ccccc3)o1)C(C)(C)CCC2(C)C [Compound 438] | – | – | remaining activity at 1 µM [4]: 7%
32 | CCOC(=O)Cc1ccc(NC(=O)c2ccc(Cc3cc4c(cc3C)C(C)(C)CCC4(C)C)o2)cc1 [Compound 32] | – | – | IC50: 3.8 µM
33 | Cc1cc2c(cc1Cc1ccc(C(=O)N3CCN(c4ncccc4C(F)(F)F)CC3)o1)C(C)(C)CCC2(C)C | -16% | -29% | –
34 | Cc1cc2c(cc1Cc1ccc(C(=O)NC(C)c3ccc(O)cc3)o1)C(C)(C)CCC2(C)C (centres unmarked) | -10% | -9% | –
35 | Cc1cc2c(cc1Cc1ccc(C(=O)NCC(O)c3ccc(O)cc3)o1)C(C)(C)CCC2(C)C (centres unmarked) | 25% | 28% | –
36 | Cc1ccc(CNC(=O)c2ccc(Cc3cc4c(cc3C)C(C)(C)CCC4(C)C)o2)cc1 [Compound 435] | – | – | remaining activity at 1 µM [4]: 12%

The next lines start with results.

Row | inhibition at 1 µM [1] | inhibition at 1 µM [2] | Compound | further results
37 | 13% | 8% | Cc1cc2c(cc1Cc1ccc(C(=O)Nc3ccc4[nH]c(-c5ccccn5)nc4c3)o1)C(C)(C)CCC2(C)C [drawing 1002] | –
38 | 86% | 88% | COc1ccccc1CNC(=O)c1ccc(Cc2cc3c(cc2C)C(C)(C)CCC3(C)C)o1 [drawing 1078] | –
39 | 1% | 1% | Cc1cc2c(cc1Cc1ccc(C(=O)NCCO)o1)C(C)(C)CCC2(C)C [drawing 1178] | –
40 | -10% | -6% | Cc1cc2c(cc1Cc1ccc(C(=O)NCc3cccc(-c4ccccc4)c3)o1)C(C)(C)CCC2(C)C [drawing 1190] | –
41 | – | 6% | Cc1cc2c(cc1Cc1ccc(C(=O)N3CCN(c4ccccc4)CC3)o1)C(C)(C)CCC2(C)C [drawing 1092] | % Inhib. @ 1 uM hGnRH (1 uM): −1%
42 | 40% | 49% | Cc1cc2c(cc1Cc1ccc(C(=O)NCCC3CCCN3C)o1)C(C)(C)CCC2(C)C (centres unmarked) [drawing 977] | –
43 | 83% | 84% | Cc1cc2c(cc1Cc1ccc(C(=O)NCCc3ccncc3)o1)C(C)(C)CCC2(C)C [drawing 1025] | –
44 | 15% | 15% | Cc1cc2c(cc1Cc1ccc(C(=O)NCCN3CCCCC3)o1)C(C)(C)CCC2(C)C [drawing 982] | –
45 | 83% | 86% | Cc1cc2c(cc1Cc1ccc(C(=O)NCC(=O)Nc3ccc([N+](=O)[O-])cc3)o1)C(C)(C)CCC2(C)C [drawing 1022] | –
46 | 18% | 9% | Cc1cc2c(cc1Cc1ccc(C(=O)NCC(F)(F)F)o1)C(C)(C)CCC2(C)C [drawing 1018] | –
47 | -13% | -9% | Cc1cc2c(cc1Cc1ccc(C(=O)Nc3nc(N(C)C)nc4nc[nH]c34)o1)C(C)(C)CCC2(C)C [drawing 1008] | –
48 | 58% | 63% | COc1cccc(CCNC(=O)c2ccc(Cc3cc4c(cc3C)C(C)(C)CCC4(C)C)o2)c1OC [drawing 1147] | –
